The subject of one assay is AI-2 activity of APEC O2. The assay can be described thus: AI-2 bioluminescence indicator assay, APEC O2. Type of assay: cell-based, avian pathogenic E. coli (APEC) O2. To be noted: Escherichia coli, read-out: % Inhibtion of AI-2 activity. The protocol: (§1) Overnight culture of APEC O78 prepared in LB broth was adjusted to an optical density (OD600) of 0.05 (7 × 10^7 CFU/mL) in fresh LB broth. One hundred micro-liters of the culture was transferred to a 96-well plate and 1µL (100 μM final concentration) of the compound was added to each well using a pin tool. Chloramphenicol (40 μg/mL) or kanamycin (30 μg/mL) and 1μL of 100% DMSO were included as controls in each plate. Plates were incubated at 37 °C for 10 h with shaking in a Sunrise^TM Tecan plate reader (Tecan Group Ltd. San Jose, CA, USA) and the growth was kinetically monitored every 30 min by measuring the OD at 600 nm.
(§2) The AI-2 bioluminescence assay was performed as described previously. Briefly, APEC O78 cultures grown in the presence of SMs (see above) were centrifuged at 5000 × g for 10 min, and cell-free culture supernatants were prepared by using a 0.22 µm filter 96 well plate (Millipore). The bioluminescence reporter V. harveyi BB170 (AI-1^+ and AI-2^-) was grown overnight in AB medium at 30 °C aerobically with shaking. The overnight culture was diluted to 1:5000 in fresh AB medium and incubated at 30 °C for 3 h. Following incubation, 180 μL of the V. harveyi BB170 culture was distributed into each well of a 96-well plate and mixed with 20 µL of the cell free culture supernatant, the plate was then incubated at 30 °C for 2.5 h in the dark and the bioluminescence was measured using in vivo imaging system (IVIS Lumina Series III, PerkinElmer, USA). […] Cell-free culture supernatants collected from overnight cultures of V. harveyi BB120 (AI-1^+andAI-2^+) and E. coli DH5α (a strain lacks AI-2) were used as controls. Bioluminescence of SMs treated culture supernatants were compared to DMSO treated control. The Z-score was calculated to evaluate the quality of the bioluminescence screening. Four independent experiments were conducted for the 69 compounds that inhibited ≥ 75% of the AI-2 mediated bioluminescence and the average inhibition percentage was calculated.
(§3) The selected compounds were also tested for inhibition of AI-2 production in other APEC serotypes such as O1, O2, O8, O15, O18, O35, O109, and O115 that are commonly implicated in colibacillosis using the same procedure described above.

For assay [1], the system named is G. mellonella larvae infected with APEC O78. The assay can be described thus: Wax moth (G. mellonella) larva infection model. To be noted: for increase in larval survival: 12.5 µg/larva (50 mg/kg), APEC O78 4.25 × 10^4 CFU, 72 h, vs DMSO treated controls; for clearance of APEC in surviving larvae / reduction of bacterial load in surviving larvae: live larvae at 72 h; for reduction of bacterial load in surviving larvae: in comparison to dead larvae. It counts as in vivo, Galleria mellonella. The procedure:
G. mellonella caterpillars (larvae) in the final instar stage (fifth instar) were obtained from Vanderhorst, Inc. (St. Mary’s, Ohio, USA), stored in wood shavings in a petri dish in the dark and used within 7 days of receiving. Larvae with 15–25 mm length, 250–350 mg weight, having a creamy color with minimal speckling and no grey markings were used in this study. The infection was performed as described previously. For the inoculation, AI-2 inhibitors were diluted in a buffer mix (30% DMSO plus 10 mM MgSO4) as described previously and each larva (n = 10) was inoculated with 8.5 µL (50 mg/kg; 12.5 µg/larva) of the AI-2 inhibitors into the hemocoel via the last left proleg using PB600-1 repeating dispenser (Hamilton) attached to insulin syringe (31 gauge, 8 mm needle length; ReliOn). Larvae were placed inside sterile petri dishes and incubated for 2 h in the dark at 37 °C. Then, larvae were infected with 8.5 µL of (4.25 × 10^4 CFU) of Rif^R APEC O78 in 10 mM MgSO4 on the right hind proleg. Rif^R APEC O78 was generated as described above by plating APEC on LB agar plate containing 50 µg/ mL rifampicin for specific monitoring of APEC population inside the larvae. […] Infection dose of Rif^R APEC O78 to larvae was identified based on preliminary study (Figure S1). Larvae were incubated at 37°C in the dark and the survival was monitored daily for 72 h. Infected larvae treated with buffer mix and 75 mg/kg of chloramphenicol were used as controls.
For the quantification of APEC inside the larvae, dead and live larvae were surface sterilized with 70% ethanol, homogenized in PBS. The suspension was tenfold serially diluted and plated on MacConkey agar plates supplemented with 50 µg/mL of rifampicin. The plates were then incubated overnight at 37 °C and APEC load was enumerated. Two independent experiments were conducted using larvae (n = 10) obtained in different batches.

A further assay concerns AI-2 activity of O18. The assay can be described thus: AI-2 bioluminescence indicator assay, APEC O18. To be noted: Escherichia coli, read-out: % Inhibtion of AI-2 activity, serotype O18, bioluminescence vs DMSO treated control. It counts as cell-based, avian pathogenic E. coli (APEC) O18. The protocol: as §1, §2, §3
The next assay deals with AI-2 activity of O15. The assay can be described thus: AI-2 bioluminescence indicator assay, APEC O15. It counts as cell-based, avian pathogenic E. coli (APEC) O15. Conditions: Escherichia coli, read-out: % Inhibtion of AI-2 activity, serotype O15, bioluminescence vs DMSO treated control. The procedure:
as §1, §2, §3

For assay [2], the system named is QS-regulated and virulence factors genes of APEC O78. As to the kind of experiment: qRT-PCR of QS-regulated and virulence factor genes. Type of assay: cell-based, avian pathogenic E. coli (APEC) O78. Conditions: APEC O78, 100 µM, 10 h, ∆∆Ct vs DMSO. The procedure:
The effect of the selected AI-2 inhibitors on the expression of QS-regulated and virulence factors genes of APEC was determined using qRT-PCR. APEC O78 was grown in the presence of 100 µM of each compound in a 96-well plate at 37 °C for 10 h. APEC O78 culture treated with 1µL of 100% DMSO was used as control. Total RNA was extracted from duplicate wells for each compound (200 µL) using a miRNeasy Mini Kit (Qiagen). RNA quality and quantity was determined by nanodrop 2000 C spectrophotometer (Thermo scientific). Traces of DNA were removed using Genomic DNA removal mix (Qiagen). Approximately, 5 μg of purified RNA was used to synthesize cDNA using the Qiagen RT^2 First Strand Kit (Qiagen). The qRT-PCR was performed using SensiMix^TM SYBR® Hi-ROX qPCR Master Mix (Bioline) according to manufacturer instructions in a realplex^2 mastercycler (Eppendorf) with 55 °C annealing temperature. Gene-specific primers were designed using PrimerQuest Tool and obtained from integrated DNA technologies (IDT). The data were normalized to the house-keeping gene, glyceraldehyde-3-phosphate dehydrogenase (GAPDH). The relative fold change was calculated using the ∆∆Ct method. Three independent experiments were conducted.
(In qPCR the cycle at which signal appears reflects the starting amount.)

Results on ten compounds are retold here after PMC7000209, “Novel small molecule modulators of quorum sensing in avian pathogenic Escherichia coli (APEC)” (Virulence, 2018).

A value given as a limit tells only on which side of the number the result lay.

For the compound `COCCN1CCC(CN(Cc2ccncc2)Cc2ccccc2Cl)CC1` [C1, (2-chlorobenzyl){[1-(2-methoxyethyl)-4-piperidinyl]methyl}(4-pyridinylmethyl)amine], the inhibition at 100 µM with AI-2 activity of APEC O2 came out at 94%. Also, in assay [1], the “increase in larval survival” value worked out at 23% and the “larval death at 72 h post treatment (in words)” value is “no larval death”. Also, the inhibition at 100 µM in the assay on AI-2 activity of O18 amounted to 37%. In addition, the inhibition at 100 µM in the assay with AI-2 activity of O15 is 13%. In assay [2], the expression of hha result is reported as “down-regulated”, the expression of iss entry was “down-regulated”, the “expression of murD” value is “down-regulated” and the “expression of thiH” value is listed as “down-regulated”. For the same compound, in assay [2], the “expression of ugpC” value is “down-regulated”.

Take `Cc1ccccc1N1CCN(C2CCCN(C(=O)c3ccc(F)c(Cl)c3)C2)CC1` (centres unmarked) [C2, 1-[1-(3-chloro-4-fluorobenzoyl)-3-piperidinyl]-4-(2-methylphenyl)piperazine]: in the assay with AI-2 activity of APEC O2, the inhibition at 100 µM came to 96%. In addition, in assay [1], the “increase in larval survival” value is listed as 30%, the “larval death at 48 h post treatment (in words)” value is recorded as “no larval death”, the “clearance of APEC in surviving larvae” value is reported as 100% and the “reduction of bacterial load in surviving larvae” value was “up to 5 logs”. Also, in the assay with AI-2 activity of O18, the inhibition at 100 µM came to 43%. In addition, the inhibition at 100 µM in the assay with AI-2 activity of O15 was found to be 27%. Besides, in assay [2], the expression of hha result is listed as “down-regulated” and the “expression of ugpC” value was “down-regulated”.

Turning to `NC(=O)c1ccccc1Nc1cccc(C(F)(F)F)c1` [C3, 2-{[3-(trifluoromethyl)phenyl]amino}benzamide], the inhibition at 100 µM in the assay with AI-2 activity of APEC O2 was 54%; in the assay with AI-2 activity of O18 it was 8%; with AI-2 activity of O15 it was 0%. Further, the expression of fpr entry in assay [2] is “down-regulated”.

As for `CS/C(N)=N/N=C/c1cc(C)ccc1O` [C4, methyl N'-(2-hydroxy-5-methylbenzylidene)h ydrazonothiocarbamate], the inhibition at 100 µM in the assay with AI-2 activity of APEC O2 came out at 76%. Also, the inhibition at 100 µM with AI-2 activity of O18 worked out at 54%. Also, the inhibition at 100 µM in the assay on AI-2 activity of O15 came to 46%. Further, in assay [2], the “expression of cheW” value is listed as “down-regulated”, the “expression of csrA” value is on record as “down-regulated”, the “expression of iucD” value is on record as “down-regulated” and the “expression of luxS” value is reported as “did not”. For the same compound, in assay [2], the expression of pfs result was “up-regulated”.

With `Cc1ccc(CN2CCN(CCCc3ccccc3)CC2)cc1` [C5, 1-(4-methylbenzyl)-4-(3-phenylpropyl)piperazine], the inhibition at 100 µM in the assay with AI-2 activity of APEC O2 amounted to 89%. For the same compound, the “larval death at 48 h post treatment (in words)” value in assay [1] is “no larval death”. Moreover, the inhibition at 100 µM with AI-2 activity of O18 was 61%. Besides, the inhibition at 100 µM with AI-2 activity of O15 amounted to 45%. Also, in assay [2], the “expression of fliP” value was “down-regulated”, the expression of fpr result is “down-regulated”, the expression of hha result is on record as “down-regulated” and the expression of wzb entry is recorded as “down-regulated”.

As to `O=[N+]([O-])c1cccc(S(=O)(=O)Nc2ccc(Br)cc2)c1` [C6, N-(4-bromophenyl)-3-nit robenzenesulfonamide], the inhibition at 100 µM with AI-2 activity of APEC O2 amounted to 93%. For the same compound, in assay [1], the “larval death at 48 h post treatment (in words)” value is “no larval death”. Further, the inhibition at 100 µM in the assay on AI-2 activity of O18 is ≥ 75%. For the same compound, in assay [2], the “expression of cheW” value is listed as “down-regulated”, the “expression of csrA” value was “down-regulated”, the “expression of fliP” value is reported as “down-regulated” and the expression of fpr entry is listed as “down-regulated”. In assay [2], the expression of hha result is given as “down-regulated” and the “expression of murD” value is “down-regulated”.

Take `O=C(CCN1CCN(c2ccccc2F)CC1)Nc1ccc(Br)cc1` [C7, N-(4-bromophenyl)-3-[4-(2-fluorophenyl)-1-piperazinyl]propanamide]: the inhibition at 100 µM came to 83% in the assay with AI-2 activity of APEC O2, 48% with AI-2 activity of O18 and 36% in the assay with AI-2 activity of O15. The “larval death at 72 h post treatment (in words)” value in assay [1] is given as “no larval death”. Moreover, the “expression of nlpC” value in assay [2] is listed as “up-regulated”.

Regarding `CCc1ccccc1Nc1nc(-c2c(C)nc3ccccn23)cs1` [C8, N-(2-ethylphenyl)-4-(2-methylimidazo[1,2-a]pyridin-3-yl)-1,3-thiazol-2-amine], the inhibition at 100 µM in the assay with AI-2 activity of APEC O2 is 94%. Also, in assay [1], the “larval death at 48 h post treatment (in words)” value is “no larval death”, the “clearance of APEC in surviving larvae” value stood at 100% and the “reduction of bacterial load in surviving larvae” value is listed as “up to 5 logs”. For the same compound, the inhibition at 100 µM in the assay with AI-2 activity of O18 was found to be 54%. Further, the inhibition at 100 µM in the assay on AI-2 activity of O15 is 25%. In addition, in assay [2], the “expression of fliP” value is “down-regulated” and the “expression of ugpC” value is “down-regulated”.

As for `Fc1ccc(CN2CCCN(Cc3nc(-c4ccc(C(F)(F)F)cc4)no3)CC2)cc1` [C9, 1-(4-fluorobenzyl)-4-({3-[4-(trifluoromethyl)phenyl]-1,2,4-oxadiazol-5-yl}methyl)-1,4-diazepane], the inhibition at 100 µM in the assay with AI-2 activity of APEC O2 was determined as 51%. In the assay on AI-2 activity of O18, the inhibition at 100 µM amounted to 14%. Further, the inhibition at 100 µM in the assay on AI-2 activity of O15 is 0%. In assay [2], the “expression of bolA” value is on record as “down-regulated”, the “expression of cheW” value is on record as “down-regulated”, the “expression of csrA” value was “down-regulated” and the expression of iss entry is recorded as “up-regulated”. Further, in assay [2], the “expression of murD” value is reported as “down-regulated”, the “expression of nlpC” value is on record as “up-regulated” and the “expression of ugpC” value is “down-regulated”.

As for `OCCC1CN(C2CCN(c3ccccc3)CC2)CCN1CCCc1ccccc1` (centres unmarked) [C10, 2-[4-(1-phenyl-4-piperidinyl)-1-(3-phenylpropyl)-2-piperazinyl]ethanol], the inhibition at 100 µM in the assay with AI-2 activity of APEC O2 turned out to be 89%; in the assay with AI-2 activity of O18, 35%; in the assay with AI-2 activity of O15 it was 22%. Also, the “expression of fliP” value in assay [2] is “down-regulated”. In addition, the “expression of frwC” value in assay [2] is recorded as “down-regulated”. The expression of iss entry in assay [2] is on record as “down-regulated”.
